In ChEMBL document CHEMBL1129930, “Analogues of methotrexate in rheumatoid arthritis. 2. Effects of 5-deazaaminopterin, 5,10-dideazaaminopterin, and analogues on type II collagen-induced arthritis in mice” (J Med Chem, 1997):

Assays:
Format in all cases: functional
[1] = Concentration required to inhibit the growth of chang liver cells.; settings: Homo sapiens
Mus musculus [2] = test: Incidence of disease (mouse type II collagen) was scored as the percentage of animals within each experimental group that exhibited joint or limb inflammation on day 23 at intraperitoneal dose of 0.024 mg/kg (deaths observed at 1.5 mg/kg)
Mus musculus [3] = test: Incidence of disease (mouse type II collagen) was scored as the percentage of animals within each experimental group that exhibited joint or limb inflammation on day 23 at intraperitoneal dose of 0.047 mg/kg (deaths observed at 1.5 mg/kg)
Mus musculus [4] = test: Incidence of disease (mouse type II collagen) was scored as the percentage of animals within each experimental group that exhibited joint or limb inflammation on day 23 at intraperitoneal dose of 0.094 mg/kg (deaths observed at 1.5 mg/kg)
Mus musculus [5] = test: Incidence of disease (mouse type II collagen) was scored as the percentage of animals within each experimental group that exhibited joint or limb inflammation on day 23 at intraperitoneal dose of 0.38 mg/kg (deaths observed at 1.5 mg/kg)
Mus musculus [6] = test: Incidence of disease (mouse type II collagen) was scored as the percentage of animals within each experimental group that exhibited joint or limb inflammation on day 23 at intraperitoneal dose of 0.75 mg/kg (deaths observed at 1.5 mg/kg)
Mus musculus [7] = test: Incidence of disease (mouse type II collagen) was scored as the percentage of animals within each experimental group that exhibited joint or limb inflammation on day 37 at intraperitoneal dose of 0.024 mg/kg (deaths observed at 1.5 mg/kg)
Mus musculus [8] = test: Incidence of disease (mouse type II collagen) was scored as the percentage of animals within each experimental group that exhibited joint or limb inflammation on day 37 at intraperitoneal dose of 0.047 mg/kg (deaths observed at 1.5 mg/kg)
Mus musculus [9] = test: Incidence of disease (mouse type II collagen) was scored as the percentage of animals within each experimental group that exhibited joint or limb inflammation on day 30 at intraperitoneal dose of 0.024 mg/kg (deaths observed at 1.5 mg/kg)
Mus musculus [10] = test: Incidence of disease (mouse type II collagen) was scored as the percentage of animals within each experimental group that exhibited joint or limb inflammation on day 30 at intraperitoneal dose of 0.047 mg/kg (deaths observed at 1.5 mg/kg)
Mus musculus [11] = test: Incidence of disease (mouse type II collagen) was scored as the percentage of animals within each experimental group that exhibited joint or limb inflammation on day 44 at intraperitoneal dose of 0.094 mg/kg (deaths observed at 1.5 mg/kg)
Mus musculus [12] = test: Incidence of disease (mouse type II collagen) was scored as the percentage of animals within each experimental group that exhibited joint or limb inflammation on day 44 at intraperitoneal dose of 0.19 mg/kg (deaths observed at 1.5 mg/kg)
Mus musculus [13] = test: Incidence of disease (mouse type II collagen) was scored as the percentage of animals within each experimental group that exhibited joint or limb inflammation on day 44 at intraperitoneal dose of 0.38 mg/kg (deaths observed at 1.5 mg/kg)
Mus musculus [14] = test: Incidence of disease (mouse type II collagen) was scored as the percentage of animals within each experimental group that exhibited joint or limb inflammation on day 30 at intraperitoneal dose of 0.38 mg/kg (deaths observed at 1.5 mg/kg)
Mus musculus [15] = test: Incidence of disease (mouse type II collagen) was scored as the percentage of animals within each experimental group that exhibited joint or limb inflammation on day 30 at intraperitoneal dose of 0.75 mg/kg (deaths observed at 1.5 mg/kg)
Mus musculus [16] = test: Incidence of disease (mouse type II collagen) was scored as the percentage of animals within each experimental group that exhibited joint or limb inflammation on day 37 at intraperitoneal dose of 0.38 mg/kg (deaths observed at 1.5 mg/kg)
Mus musculus [17] = test: Tested for antiinflammatory activity on mouse type II collagen arthritis as Paw swelling of all animals in each group on day 23 at intraperitoneal dose of 0.024 mg/kg
Mus musculus [18] = test: Tested for antiinflammatory activity on mouse type II collagen arthritis as Paw swelling of all animals in each group on day 23 at intraperitoneal dose of 0.047 mg/kg
Mus musculus [19] = test: Tested for antiinflammatory activity on mouse type II collagen arthritis as Paw swelling of all animals in each group on day 23 at intraperitoneal dose of 0.19 mg/kg
Mus musculus [20] = test: Tested for antiinflammatory activity on mouse type II collagen arthritis as Paw swelling of all animals in each group on day 23 at intraperitoneal dose of 0.75 mg/kg
Mus musculus [21] = test: Tested for antiinflammatory activity on mouse type II collagen arthritis as Paw swelling of all animals in each group on day 30 at intraperitoneal dose of 0.024 mg/kg
Mus musculus [22] = test: Tested for antiinflammatory activity on mouse type II collagen arthritis as Paw swelling of all animals in each group on day 30 at intraperitoneal dose of 0.094 mg/kg
Mus musculus [23] = test: Tested for antiinflammatory activity on mouse type II collagen arthritis as Paw swelling of all animals in each group on day 30 at intraperitoneal dose of 0.19 mg/kg
Mus musculus [24] = test: Tested for antiinflammatory activity on mouse type II collagen arthritis as Paw swelling of all animals in each group on day 30 at intraperitoneal dose of 0.38 mg/kg
Mus musculus [25] = test: Tested for antiinflammatory activity on mouse type II collagen arthritis as Paw swelling of all animals in each group on day 44 at intraperitoneal dose of 0.75 mg/kg
Mus musculus [26] = test: Tested for antiinflammatory activity on mouse type II collagen arthritis as Paw swelling of all animals in each group on day 44 at intraperitoneal dose of 0.024 mg/kg
Mus musculus [27] = test: Tested for antiinflammatory activity on mouse type II collagen arthritis as Paw swelling of all animals in each group on day 44 at intraperitoneal dose of 0.047 mg/kg
Mus musculus [28] = test: Tested for antiinflammatory activity on mouse type II collagen arthritis as Paw swelling of all animals in each group on day 44 at intraperitoneal dose of 0.094 mg/kg
Mus musculus [29] = test: Tested for antiinflammatory activity on mouse type II collagen arthritis as Paw swelling of all animals in each group on day 44 at intraperitoneal dose of 0.19 mg/kg
Mus musculus [30] = test: Tested for antiinflammatory activity on mouse type II collagen arthritis as Paw swelling of all animals in each group on day 30 at intraperitoneal dose of 0.75 mg/kg
Mus musculus [31] = test: Tested for antiinflammatory activity on mouse type II collagen arthritis as Paw swelling of all animals in each group on day 37 at intraperitoneal dose of 0.094 mg/kg
Mus musculus [32] = test: Tested for antiinflammatory activity on mouse type II collagen arthritis as Paw swelling of all animals in each group on day 37 at intraperitoneal dose of 0.75 mg/kg
Mus musculus [33] = test: Tested for antiinflammatory activity on mouse type II collagen arthritis as Paw swelling of all animals in each group on day 23 at intraperitoneal dose of 0.38 mg/kg

**Q.** What does the source list for `CCc1c(CN(C)c2ccc(C(=O)NC(CCC(=O)O)C(=O)O)cc2)cnc2nc(N)nc(N)c12` (stereo not drawn)?
**A.** IC50 [1]: 89 nM; Animals (Mus musculus [2]): 0%; Animals (Mus musculus [3]): 0%; Animals (Mus musculus [4]): 0%; Animals (Mus musculus [5]): 0%; Animals (Mus musculus [6]): 0%; Animals (Mus musculus [7]): 0%; Animals (Mus musculus [8]): 50%; Animals (Mus musculus [9]): 0%; Animals (Mus musculus [10]): 12%; Animals (Mus musculus [11]): 25%; Animals (Mus musculus [12]): 12%; Animals (Mus musculus [13]): 0%; Animals (Mus musculus [14]): 0%; Animals (Mus musculus [15]): 14%; Animals (Mus musculus [16]): 0%; Paw swelling (Mus musculus [17]): 2.12 mm; Paw swelling (Mus musculus [18]): 2.1 mm; Paw swelling (Mus musculus [19]): 2.11 mm; Paw swelling (Mus musculus [20]): 2.14 mm; Paw swelling (Mus musculus [21]): 2.22 mm; Paw swelling (Mus musculus [22]): 2.14 mm; Paw swelling (Mus musculus [23]): 2.14 mm; Paw swelling (Mus musculus [24]): 2.16 mm; Paw swelling (Mus musculus [25]): 2.18 mm; Paw swelling (Mus musculus [26]): 2.23 mm; Paw swelling (Mus musculus [27]): 2.57 mm; Paw swelling (Mus musculus [28]): 2.27 mm; Paw swelling (Mus musculus [29]): 2.2 mm; Paw swelling (Mus musculus [30]): 2.2 mm; Paw swelling (Mus musculus [31]): 2.2 mm; Paw swelling (Mus musculus [32]): 2.2 mm; Paw swelling (Mus musculus [33]): 2.15 mm
